Test results published in patent publication US20240366589A1, “NHE3-BINDING COMPOUNDS AND METHODS FOR INHIBITING PHOSPHATE TRANSPORT” (Ardelyx, Inc., priority 2013, published 2024).

Columns and labels:
Human NHE3 [1] = target: T1, Human NHE3 (Homo sapiens, UniProt P48764); test: Cell-based NHE3 activity under prompt conditions (OK cells, BCECF pH recovery), human NHE3; conditions: for Human NHE3 pIC50 Prompt: Table E5, 001 free base, 002-005 dihydrochloride salt; for pIC50 Prompt: Table E6, NHE3 species not stated
T1 construct: expressed in transfected cells; host or cells: Opossum kidney (OK) cells (ATCC), electroporation
T1 sequence (P48764 26-834): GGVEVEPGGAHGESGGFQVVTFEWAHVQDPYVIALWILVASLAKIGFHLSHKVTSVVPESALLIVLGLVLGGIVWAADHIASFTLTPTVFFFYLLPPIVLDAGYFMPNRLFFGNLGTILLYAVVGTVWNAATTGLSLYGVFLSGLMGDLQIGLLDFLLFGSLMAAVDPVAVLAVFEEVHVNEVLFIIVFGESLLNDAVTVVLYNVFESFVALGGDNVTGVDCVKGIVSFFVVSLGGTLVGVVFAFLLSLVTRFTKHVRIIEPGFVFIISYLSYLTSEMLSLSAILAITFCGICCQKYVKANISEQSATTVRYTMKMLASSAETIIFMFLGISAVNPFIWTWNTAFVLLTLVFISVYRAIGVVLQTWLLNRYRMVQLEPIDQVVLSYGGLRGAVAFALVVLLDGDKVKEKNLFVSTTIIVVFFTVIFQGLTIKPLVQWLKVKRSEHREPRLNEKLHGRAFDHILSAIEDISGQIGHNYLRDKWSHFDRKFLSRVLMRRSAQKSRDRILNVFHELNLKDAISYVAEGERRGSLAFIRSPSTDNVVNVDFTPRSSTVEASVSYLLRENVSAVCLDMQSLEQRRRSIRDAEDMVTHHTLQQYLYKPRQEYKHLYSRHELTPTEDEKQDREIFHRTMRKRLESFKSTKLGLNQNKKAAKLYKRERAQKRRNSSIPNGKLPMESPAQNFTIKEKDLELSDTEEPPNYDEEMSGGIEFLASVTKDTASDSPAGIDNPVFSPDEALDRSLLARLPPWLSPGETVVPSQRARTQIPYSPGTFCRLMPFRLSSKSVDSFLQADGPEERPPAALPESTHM
In short: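 Opossum kidney cells transfected with rat or human NHE3 underwent ammonium prepulse (20 mM NH4Cl, pH 7.4, 30 min) then 10 min in Na+-free buffer, room temperature.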

Human NHE3 [2] = target: T1, Human NHE3; test: Cell-based NHE3 activity under persistent conditions (60 min incubation, washout), human NHE3; conditions: Table E5; dihydrochloride salt
[3] = test system: adenine-induced uremic rat model; test: Adenine-induced uremic rat model; assay type: in vivo
Procedure: The effects of Cpd 002 (from Table E4, as the dihydrochloride salt) were tested in an adenine-induced uremic rat model. Rats were fed a diet including 0.75% adenine and 1.2% phosphorus during the nephritis induction phase. The basal diet during the treatment phase was normal chow including 0.3% adenine and 0.6% phosphorus for 2 weeks. The rats were pair-fed the first 5 days (groups 1 and 2 to group 3, 4 days apart), and fed ad libitum afterwards. The treatment groups were as follows: vehicle, n=10; Cpd 002, 2 mg/kg/day drug-in-chow, n=10; and Cpd 002, 5 mg/kg/day drug-in-chow, n=12. Weekly measurements were taken for serum markers and kidney function. The study design is illustrated in FIG. 8A.

[4] = test system: absorption of sodium from the intestinal lumen; test: Fecal form score (FFS) 16 h after oral dose in rats; assay type: in vivo, rat; conditions: in words
In short: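 Fecal form was scored at 16 h post-dose on a 1–5 wetness scale (normal pellet to liquid stream), with two independent observations averaged across six rats per group. Animals were 8-week-old Sprague-Dawley rats given test compound or water orally in the late afternoon and kept in metabolic cages.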

[5] = test system: intestinal phosphate uptake; test: Pharmacodynamic study with 33P oral challenge in normal function rats; assay type: in vivo, rat; conditions: 8 mM Pi with 33P, 10 mg/kg, dihydrochloride salts, FIG. 1A
Procedure: The compounds identified as Cpds 003, 004, and 005 (from Table E4, as their dihydrochloride salts) were tested for the ability to block intestinal phosphate uptake in rats. Rats were orally challenged with dosing solutions composed of 5 ml/kg (˜1.3 ml) of 8 mM Pi with ^33P and +/−10 mg/kg of test compound. Also included were dosing solutions further composed of either (i) 75 mM glucose+4 mM Ca or (ii) 4 mM Ca.

[6] = early time points, 2 and 5 mg/kg/day drug-in-chow
[7] = week three, highest dose 5 mg/kg/day

Row | SMILES | Human NHE3 pIC50 Prompt (Human NHE3 [1]) | pIC50 Prompt (Human NHE3 [1]) | Human NHE3 pIC50 Persistent (Human NHE3 [2]) | serum creatinine [3, 6] | serum phosphorus [3, 6] | heart remodeling (organ weight) ([3]; week three) | kidney remodeling (organ weight) ([3]; week three) | heart calcification (tissue mineralization) [3, 7] | kidney calcification (tissue mineralization) [3, 7] | effect on fecal form [4] | Pi uptake after 33P oral challenge [5]
1 | CN1Cc2c(Cl)cc(Cl)cc2[C@H](c2cccc(S(=O)(=O)NCCOCCOCCNC(=O)NCCCCNC(=O)NCCOCCOCCNS(=O)(=O)c3cccc([C@@H]4CN(C)Cc5c(Cl)cc(Cl)cc54)c3)c2)C1 [Cpd 002] | 8 | 8 | 8.2 | reduced | reduced | trend towards lesser heart and kidney remodeling | trend towards lesser heart and kidney remodeling | trend towards reduced heart and kidney calcification | trend towards reduced heart and kidney calcification |  | 
2 | CN1Cc2c(Cl)cc(Cl)cc2[C@@H](c2cccc(S(=O)(=O)NCCOCCOCCNC(=O)NCCCCNC(=O)NCCOCCOCCNS(=O)(=O)c3cccc([C@H]4CN(C)Cc5c(Cl)cc(Cl)cc54)c3)c2)C1 [Cpd 004] | 7.3 | 7.3 | 5.6 |  |  |  |  |  |  | no significant effect | as potent at reducing Pi uptake as a persistent inhibitor such as Cpd 003
